Assay results taken from patent US6482438B1, “Apparatus and process for preparing crystalline particles” (SmithKline Beecham Corporation, priority 1998, dated 2002).

Experiments:
[1] = Malvern laser diffraction particle sizing (Mastersizer S) of crystalline salmeterol xinafoate particles; assay type: physicochemical; details: methanol solution 7 ml/min
Description: A continuous flow reaction cell with 2 diametrically opposite inlets at the bottom and a run-out ca. half way up the side of the vessel is used in the experiment. […] The drug substance (salmeterol xinafoate) is dissolved in methanol (6 vol) at elevated temperature
(65° C.). A solution of salmeterol xinafoate (0.276 M) is then pumped (a fixed rate of 7 ml/min) using a peristaltic pump into one of the bottom inlets of the reaction cell. Cold water was similarly pumped via the other inlet from a water reservoir using a second pump at rates as dictated by the experimental design.
Re-crystallisations are carried out from various mixtures of methanol and water as dictated by the parameters set out in the experimental design. Efficient mixing of the two streams is ensured with the aid of a non-grinding magnetic stirrer bar. The stirrer speed is maintained constant at all times. The stir speed is set at such a rate so as to induce a minimum amount of vortex.
(§1) Before carrying out any particular crystallisation, the cell is pre-charged with a mixture of methanol/water (the ratio of each being the same as the relative pumping rates from the two reservoirs). By doing this, the relative concentrations of the water to methanol remains constant throughout the crystallisation. The tip of the sono-probe is arranged so that it is just above the inlet for the salmeterol solution. When the magnetic stirrer, sono-probe and pumps are turned on, rapid onset of crystallisation takes place. A suspension of the crystallisation mixture exits via the overflow directly on to a filter funnel thus minimising the opportunity for further crystal growth.
(§2) Using the above set-up, the experiments set out in the experimental design shown below were carried out and the samples of damp solid harvested and dried in vacuo at ambient temperature. All the samples were sized using the Malvern laser diffraction particle sizer and the results analysed using multi-dimensional model fitting software (such as Design Expert 5).
Ultrasound Power is given as a percentage of maximum (600 W). Ultrasound frequency was 22 kHz.
(§3) Samples were analysed using Malvern laser diffraction particle sizing.
Instrument: Malvern Mastersizer S
Lens: 300 mm Reverse Fourier
Analysis: presentation code 30 GE
(§4) Dispersant: Iso Octane / Lecithin 0.05% w/w
Pre dispersion: Sonicate for 1 Minute
(§5) One analysis per sample was carried out. The median particle size (D50), particle size at 90% undersize (D90) and particle size at 10 % undersize (D10) were used as responses to characterise the medium, course, and fine particles. In addition a fourth response, uniformity index (Ul) was calculated as a measure of the breadth of the distribution.
Uniformity Index (Ul) is calculated as 100×D 10/D90.

[2] = Malvern laser diffraction particle sizing (Mastersizer X) of crystalline fluticasone propionate particles; assay type: physicochemical
Description: A continuous flow reaction cell with 2 diametrically opposite inlets at the bottom and a run-out ca. half way up the side of the vessel is used in the experiment. The drug substance (fluticasone propionate, FP) is dissolved in acetone (15 vol, 0.133 M) at elevated temperature (50-56° C.) and then allowed to cool to ambient temperature (20° C.). A solution of FP is then pumped using a peristaltic pump into one of the bottom inlets of the reaction cell. Water was similarly pumped via the other inlet from a water reservoir using a second pump.
Re-crystallisations are carried out from various mixtures of acetone and water (by altering the flow rates of each) as dictated by the parameters set out in the experimental design. Efficient mixing of the two streams is ensured with the aid of a non-grinding magnetic stirrer bar.
as §1, with “acetone/water” for “methanol/water”, “acetone” for “methanol”, “FP” for “salmeterol”
as §2
Ultrasound Power is given as a percentage of maximum (50 W). Ultrasound frequency was 22 kHz.
as §3
Instrument: Malvern Mastersizer X
Lens: 45 mm Reverse Fourier
Analysis: 0607 presentation code
as §4
Pre dispersion: Sonicate for 10 seconds
as §5, with “10%” for “10 %”
Uniformity Index (Ul) is calculated as 100×D10/D90.

[3] = Run 1: water 14 ml/min, ultrasound 10.00 % of 600 W
[4] = Run 2: water 56 ml/min, ultrasound 10.00 % of 600 W
[5] = Run 3: water 56 ml/min, ultrasound 90.00 % of 600 W
[6] = Run 4: water 56 ml/min, ultrasound 90.00 % of 600 W
[7] = Run 5: water 56 ml/min, ultrasound 10.00 % of 600 W
[8] = Run 6: water 14 ml/min, ultrasound 10.00 % of 600 W
[9] = Run 7: water 35 ml/min, ultrasound 50.00 % of 600 W
[10] = Run 8: water 14 ml/min, ultrasound 90.00 % of 600 W
[11] = Run 9: water 35 ml/min, ultrasound 50.00 % of 600 W
[12] = Run 10: water 14 ml/min, ultrasound 90.00 % of 600 W
[13] = Run 1: water 24 ml/min, acetone solution 3.50 ml/min, stirring 40.00 %, ultrasound 0.00 % of 50 W
[14] = Run 2: water 18 ml/min, acetone solution 5.25 ml/min, stirring 20.00 %, ultrasound 20.00 % of 50 W
[15] = Run 3: water 24 ml/min, acetone solution 3.50 ml/min, stirring 0.00 %, ultrasound 40.00 % of 50 W
[16] = Run 4: water 12 ml/min, acetone solution 7.00 ml/min, stirring 0.00 %, ultrasound 40.00 % of 50 W
[17] = Run 5: water 24 ml/min, acetone solution 7.00 ml/min, stirring 40.00 %, ultrasound 40.00 % of 50 W
[18] = Run 6: water 18 ml/min, acetone solution 5.25 ml/min, stirring 20.00 %, ultrasound 20.00 % of 50 W
[19] = Run 7: water 12 ml/min, acetone solution 3.50 ml/min, stirring 0.00 %, ultrasound 0.00 % of 50 W
[20] = Run 8: water 12 ml/min, acetone solution 7.00 ml/min, stirring 40.00 %, ultrasound 0.00 % of 50 W
[21] = Run 9: water 12 ml/min, acetone solution 3.50 ml/min, stirring 40.00 %, ultrasound 40.00 % of 50 W
[22] = Run 10: water 24 ml/min, acetone solution 7.00 ml/min, stirring 0.00 %, ultrasound 0.00 % of 50 W

OCc1cc(C(O)CNCCCCCCOCCCCc2ccccc2)ccc1O (centres unmarked) [salmeterol xinafoate]
D10 particle size at 10% undersize [1, 3]: 1.6 μm
D50 median particle size [1, 3]: 10.1 μm
D90 particle size at 90% undersize [1, 3]: 24.78 μm
UI uniformity index (100×D10/D90) [1, 3]: 6.46%
D10 particle size at 10% undersize [1, 4]: 0.48 μm
D50 median particle size [1, 4]: 3.9 μm
D90 particle size at 90% undersize [1, 4]: 10.21 μm
UI uniformity index (100×D10/D90) [1, 4]: 4.70%
D10 particle size at 10% undersize [1, 5]: 0.64 μm
D50 median particle size [1, 5]: 4.24 μm
D90 particle size at 90% undersize [1, 5]: 14.45 μm
UI uniformity index (100×D10/D90) [1, 5]: 4.42%
D10 particle size at 10% undersize [1, 6]: 0.53 μm
D50 median particle size [1, 6]: 4.29 μm
D90 particle size at 90% undersize [1, 6]: 17.62 μm
UI uniformity index (100×D10/D90) [1, 6]: 3.01%
D10 particle size at 10% undersize [1, 7]: 0.39 μm
D50 median particle size [1, 7]: 4.74 μm
D90 particle size at 90% undersize [1, 7]: 16.8 μm
UI uniformity index (100×D10/D90) [1, 7]: 2.32%
D10 particle size at 10% undersize [1, 8]: 2.17 μm
D50 median particle size [1, 8]: 11.09 μm
D90 particle size at 90% undersize [1, 8]: 23.37 μm
UI uniformity index (100×D10/D90) [1, 8]: 9.28%
D10 particle size at 10% undersize [1, 9]: 1.08 μm
D50 median particle size [1, 9]: 4.75 μm
D90 particle size at 90% undersize [1, 9]: 13.45 μm
UI uniformity index (100×D10/D90) [1, 9]: 8.03%
D10 particle size at 10% undersize [1, 10]: 1.63 μm
D50 median particle size [1, 10]: 6.37 μm
D90 particle size at 90% undersize [1, 10]: 20.37 μm
UI uniformity index (100×D10/D90) [1, 10]: 8.00%
D10 particle size at 10% undersize [1, 11]: 1.88 μm
D50 median particle size [1, 11]: 4.99 μm
D90 particle size at 90% undersize [1, 11]: 11.76 μm
UI uniformity index (100×D10/D90) [1, 11]: 15.99%
D10 particle size at 10% undersize [1, 12]: 1.77 μm
D50 median particle size [1, 12]: 7.86 μm
D90 particle size at 90% undersize [1, 12]: 24.96 μm
UI uniformity index (100×D10/D90) [1, 12]: 7.09%

CCC(=O)O[C@]1(C(=O)SCF)[C@H](C)C[C@H]2[C@@H]3C[C@H](F)C4=CC(=O)C=C[C@]4(C)[C@@]3(F)[C@@H](O)C[C@@]21C [fluticasone propionate]
D10 particle size at 10% undersize [2, 13]: 1.07 μm
D50 median particle size [2, 13]: 4.95 μm
D90 particle size at 90% undersize [2, 13]: 18.91 μm
UI uniformity index (100×D10/D90) [2, 13]: 5.7%
D10 particle size at 10% undersize [2, 14]: 1.02 μm
D50 median particle size [2, 14]: 4.56 μm
D90 particle size at 90% undersize [2, 14]: 14.29 μm
UI uniformity index (100×D10/D90) [2, 14]: 7.1%
D10 particle size at 10% undersize [2, 15]: 1 μm
D50 median particle size [2, 15]: 4.2 μm
D90 particle size at 90% undersize [2, 15]: 18.3 μm
UI uniformity index (100×D10/D90) [2, 15]: 5.3%
D10 particle size at 10% undersize [2, 16]: 2.62 μm
D50 median particle size [2, 16]: 7.52 μm
D90 particle size at 90% undersize [2, 16]: 20.83 μm
UI uniformity index (100×D10/D90) [2, 16]: 12.6%
D10 particle size at 10% undersize [2, 17]: 1.05 μm
D50 median particle size [2, 17]: 4.3 μm
D90 particle size at 90% undersize [2, 17]: 14.66 μm
UI uniformity index (100×D10/D90) [2, 17]: 7.2%
D10 particle size at 10% undersize [2, 18]: 0.89 μm
D50 median particle size [2, 18]: 5.28 μm
D90 particle size at 90% undersize [2, 18]: 17.16 μm
UI uniformity index (100×D10/D90) [2, 18]: 5.1%
D10 particle size at 10% undersize [2, 19]: 2.32 μm
D50 median particle size [2, 19]: 9.34 μm
D90 particle size at 90% undersize [2, 19]: 28.97 μm
UI uniformity index (100×D10/D90) [2, 19]: 8%
D10 particle size at 10% undersize [2, 20]: 1.06 μm
D50 median particle size [2, 20]: 3.46 μm
D90 particle size at 90% undersize [2, 20]: 9.33 μm
UI uniformity index (100×D10/D90) [2, 20]: 11.4%
D10 particle size at 10% undersize [2, 21]: 0.97 μm
D50 median particle size [2, 21]: 3.67 μm
D90 particle size at 90% undersize [2, 21]: 11.47 μm
UI uniformity index (100×D10/D90) [2, 21]: 8.5%
D10 particle size at 10% undersize [2, 22]: 1.48 μm
D50 median particle size [2, 22]: 9.79 μm
D90 particle size at 90% undersize [2, 22]: 37.62 μm
UI uniformity index (100×D10/D90) [2, 22]: 3.9%
